In patent US20120053218A1, “TRIAZOLE DERIVATIVES AS VASOPRESSIN-RECEPTOR INHIBITORS FOR TREATING CARDIAC INSUFFICIENCY” (BAYER PHARMA AKTIENGESELLSCHAFT, priority 2009, published 2012):

Key:
human V2 receptor = target: T1, human V2 receptor (Homo sapiens, UniProt P30518); assay: Cellular in vitro assay for vasopressin receptor activity (aequorin luminescence, CHO K1 cells), hV2; assay type: cell-based; conditions: CHO cell line transfected with human V2 receptor and Gα16, agonist [Arg8]-vasopressin
T1 construct: expressed in transfected cells; host or cells: CHO K1 (ATCC), constitutively expressing modified aequorin and co-transfected with Gα16
T1 sequence (P30518 whole entry): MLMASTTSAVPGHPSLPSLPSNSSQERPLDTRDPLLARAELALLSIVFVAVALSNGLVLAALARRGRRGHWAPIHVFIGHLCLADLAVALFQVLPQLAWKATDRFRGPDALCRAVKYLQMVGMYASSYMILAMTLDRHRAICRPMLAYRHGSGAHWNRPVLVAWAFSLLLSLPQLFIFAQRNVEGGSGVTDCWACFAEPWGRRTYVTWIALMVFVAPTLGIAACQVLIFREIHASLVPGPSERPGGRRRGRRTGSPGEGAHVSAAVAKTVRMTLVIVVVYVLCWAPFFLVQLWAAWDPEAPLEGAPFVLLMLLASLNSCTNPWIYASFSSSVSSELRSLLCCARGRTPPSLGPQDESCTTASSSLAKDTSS
Text: (§1) The identification of agonists and antagonists of the V1a and V2 vasopressin receptors from humans and rats and also the quantification of the activity of the substances described here took place using recombinant cell lines. These cells derive originally from a hamster ovary epithelial cell (Chinese Hamster Ovary, CHO K1, ATCC: American Type Culture Collection, Manassas, Va. 20108, USA). The test cell lines constitutively express a modified form of the calcium-sensitive photoprotein aequorin, which, after reconstitution with the cofactor coelenterazine, emits light when there are increases in the free calcium concentration (Rizzuto R., Simpson A. W., Brini M., Pozzan T.; Nature 358 (1992) 325-327). In addition, the cells are stably transfected with the human or rat V1a or V2 receptors. In the case of the Gs-coupling V2 receptors, the cells are stably transfected with a further gene, which codes for the promiscuous Gα16 protein (Amatruda T. T., Steele D. A., Slepak V. Z., Simon M. I., Proc. Nat. Acad. Sci. USA 88 (1991), 5587-5591), either independently or as a fusion gene. The resulting vasopressin receptor test cells react to stimulation of the recombinantly expressed vasopressin receptors by intracellular release of calcium ions, which can be quantified by the resulting aequorin luminescence using a suitable luminometer (Milligan G., Marshall F., Rees S., Trends in Pharmaco. Sci. 17 (1996) 235-237).
(§2) Test procedure: On the day before the assay, the cells are plated out in culture medium (DMEM, 10% FCS, 2 mM glutamine, 10 mM HEPES) in 384-well microtiter plates and kept in a cell incubator (96% humidity, 5% v/v carbon dioxide, 37° C.). On the day of the assay, the culture medium is replaced by a Tyrode solution (140 mM sodium chloride, 5 mM potassium chloride, 1 mM magnesium chloride, 2 mM calcium chloride, 20 mM glucose, 20 mM HEPES), which additionally contains the cofactor coelenterazine (50 μM), and the microtiter plate is then incubated for a further 3-4 hours. The test substances in various concentrations are placed for 10 to 20 minutes in the wells of the microtiter plate before the agonist [Arg8]-vasopressin is added, and the resulting light signal is measured immediately in the luminometer. The IC50 values are calculated using the GraphPad PRISM computer program (Version 3.02).
(§3) The table below lists representative IC50 values for the compounds of the invention on the cell line transfected with the human V1a or V2 receptor: […]

human V1a receptor = target: T2, human V1a receptor (Homo sapiens, UniProt P37288); assay: Cellular in vitro assay for vasopressin receptor activity (aequorin luminescence, CHO K1 cells), hV1a; assay type: cell-based; conditions: CHO cell line transfected with human V1a receptor, agonist [Arg8]-vasopressin
T2 construct: expressed in transfected cells; host or cells: CHO K1 (ATCC), constitutively expressing modified aequorin
T2 sequence (P37288 whole entry): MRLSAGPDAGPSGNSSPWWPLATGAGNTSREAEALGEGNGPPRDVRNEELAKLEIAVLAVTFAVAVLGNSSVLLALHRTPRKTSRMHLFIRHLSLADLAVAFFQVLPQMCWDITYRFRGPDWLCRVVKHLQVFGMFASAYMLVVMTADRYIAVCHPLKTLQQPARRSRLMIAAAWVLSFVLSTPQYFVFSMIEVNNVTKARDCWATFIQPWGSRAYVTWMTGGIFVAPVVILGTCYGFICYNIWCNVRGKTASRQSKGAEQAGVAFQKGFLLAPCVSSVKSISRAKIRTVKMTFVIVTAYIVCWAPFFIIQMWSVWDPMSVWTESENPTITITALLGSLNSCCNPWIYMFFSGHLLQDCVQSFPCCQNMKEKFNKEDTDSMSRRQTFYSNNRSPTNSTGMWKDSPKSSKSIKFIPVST
Text: as §1, §2, §3

SMILES | IC50 (human V2 receptor) [nM] | IC50 (human V1a receptor) [nM]
CC(NC(=O)Cn1nc(-c2ccc(Cl)cc2)n(C[C@H](O)C(F)(F)F)c1=O)(C(=O)O)c1cccc(C(F)(F)F)c1 (stereo partly drawn) [Example 1, 2-[({3-(4-Chlorophenyl)-5-oxo-4-[(2S)-3,3,3-trifluoro-2-hydroxypropyl]-4,5-dihydro-1H-1,2,4-triazol-1-yl}acetyl)amino]-2-[3-(trifluoromethyl)phenyl]propanoic acid] | 12 | 118
C[C@](NC(=O)Cn1nc(-c2ccc(Cl)cc2)n(C[C@H](O)C(F)(F)F)c1=O)(C(N)=O)c1ccccc1Cl [Example 17, (2R)-2-(2-Chlorophenyl)-2-[({3-(4-chlorophenyl)-5-oxo-4-[(2S)-3,3,3-trifluoro-2-hydroxypropyl]-4,5-dihydro-1H-1,2,4-triazol-1-yl}acetyl)amino]propanamide] | 220 | 12
C[C@](NC(=O)Cn1nc(-c2ccc(Cl)cc2)n(C[C@H](O)C(F)(F)F)c1=O)(C(N)=O)c1cccc(C(F)(F)F)c1 [Example 4, (2R)-2-[({3-(4-Chlorophenyl)-5-oxo-4-[(2S)-3,3,3-trifluoro-2-hydroxypropyl]-4,5-dihydro-1H-1,2,4-triazol-1-yl}acetyl)amino]-2-[3-(trifluoromethyl)phenyl]propanamide] | 3.7 | 2.2
CCC(NC(=O)Cn1nc(-c2ccc(Cl)cc2)n(C[C@H](O)C(F)(F)F)c1=O)(C(N)=O)c1cccc(C(F)(F)F)c1 (single isomer, unassigned) [Example 14] | 6.4 | 6
CC(NC(=O)Cn1nc(-c2ccc(Cl)cc2)n(Cc2ccccc2F)c1=O)(C(N)=O)c1cccc(C(F)(F)F)c1 (single isomer, unassigned) [Example 25, 2-({[3-(4-Chlorophenyl)-4-(2-fluorobenzyl)-5-oxo-4,5-dihydro-1H-1,2,4-triazol-1-yl]acetyl}amino)-2-[3-(trifluoromethyl)phenyl]propanamide] | 16 | 6
C[C@@](NC(=O)Cn1nc(-c2ccc(Cl)cc2)n(C[C@H](O)C(F)(F)F)c1=O)(C(N)=O)c1cccc(C(F)(F)F)c1 [Example 3, (2S)-2-[({3-(4-Chlorophenyl)-5-oxo-4-[(2S)-3,3,3-trifluoro-2-hydroxypropyl]-4,5-dihydro-1H-1,2,4-triazol-1-yl}acetyl)amino]-2-[3-(trifluoromethyl)phenyl]propanamide] | 28 | 106
C[C@](NC(=O)Cn1nc(-c2ccc(Cl)cc2)n(/C=C/C(F)(F)F)c1=O)(C(N)=O)c1cccc(C(F)(F)F)c1 [Example 19, (2R)-2-[({3-(4-Chlorophenyl)-5-oxo-4-[(1E)-3,3,3-trifluoroprop-1-en-1-yl]-4,5-dihydro-1H-1,2,4-triazol-1-yl}acetyl)amino]-2-[3-(trifluoromethyl)phenyl]propanamide] | 14 | 13
